# Read-outs that look alike come from different tables or passages of the source.
# What was measured:
# [1] = test system: SMN2 minigene (full length SMN2 minigene mRNA containing SMN2 exon 7); test: SMN2 minigene mRNA splicing RT-qPCR assay in cultured cells; assay type: cell-based, human; settings: Homo sapiens, HEK293-H, read-out: EC1.5x for production of full length SMN2 mRNA
# Method in brief: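 Full-length SMN2 minigene mRNA (exon 7 included), minigene-specific and not endogenous SMN, quantified by RT-qPCR multiplexed with GAPDH in stably transfected HEK293H cells after 24 h compound exposure at 37° C. Abundance from efficiency-corrected Ct, normalized to GAPDH and vehicle; EC1.5x reported as star bins.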
# Smn protein = Smn protein assay in cultured cells (SMN HTRF); assay type: cell-based, human; settings: 48 hours; for maximum fold (Fold) increase of Smn protein: SMA patient fibroblast cells, 7-point concentration data, fold increase relative to vehicle control (SMN HTRF); for EC1.5x (concentration giving 1.5-fold Smn protein increase): SMA Type 1 patient fibroblast cells (GM03813), 7-point concentration curve, SMN HTRF, concentration producing 1.5 times Smn protein vs DMSO vehicle control, read-out: EC1.5x for Smn protein expression
# Method in brief: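 Smn in SMA fibroblast lysates, measured by anti-SMN HTRF after 48 h compound exposure; EC1.5x from fold change over vehicle.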
# [2] = HEK293H cells stably transfected with SMN2-A minigene, 24 hours, 7-point concentration curve, 1.5-fold relative to vehicle-treated cells
melting point [°C],Compound,"EC (1.5-fold) [1, 2] [µM]",maximum fold (Fold) increase of Smn protein (Smn protein),EC1.5x (concentration giving 1.5-fold Smn protein increase) (Smn protein) [nM],EC (1.5-fold) ([1]; 24 h) [µM]
101 to 103,"COc1ccc(-c2cc3ccc(N4CCN[C@H](C)C4)cc3oc2=O)c(OC)c1 [Compound 466, 3-(2,4-dimethoxyphenyl)-7-[(3R)-3-methylpiperazin-1-yl]-2H-chromen-2-one]",3 to 30,* (maximum fold increase of ≤1.2),–,–
160 to 164,"Cc1cn2cc(-c3cc4ccc(N5CCN(CCO)CC5)cc4oc3=O)cc2c(C)n1 [Compound 685, 3-(1,3-dimethylpyrrolo[1,2-a]pyrazin-7-yl)-7-[4-(2-hydroxyethyl)piperazin-1-yl]-2H-chromen-2-one]",< 0.1,**** (fold increase between >1.5 and ≤1.65),< 300,–
236,"Cc1ccn2cc(-c3cc4ccc(N5CCCNCC5)cc4oc3=O)nc2c1 [Compound 216, 7-(1,4-diazepan-1-yl)-3-(7-methylimidazo[1,2-a]pyridin-2-yl)-2H-chromen-2-one]",0.3 to 1,*** (fold increase between >1.35 and ≤1.5),–,–
268 to 275,"Cc1cc(F)c2nc(-c3cc4ccc(N5C[C@@H](C)N[C@@H](C)C5)cc4oc3=O)cn2c1 [Compound 354, 7-[(3R,5S)-3,5-dimethylpiperazin-1-yl]-3-(8-fluoro-6-methylimidazo[1,2-a]pyridin-2-yl)-2H-chromen-2-one]",< 0.1,*** (fold increase between >1.35 and ≤1.5),1000 to 3000,–
213 to 215,"Cc1nccn2cc(-c3cc4ccc(N5CCNCC5)cc4oc3=O)nc12 [Compound 571, 3-(8-methylimidazo[1,2-a]pyrazin-2-yl)-7-(piperazin-1-yl)-2H-chromen-2-one]",0.3 to 1,** (fold increase between >1.2 and ≤1.35),–,–
180 to 183,"Cc1cn2cc(-c3cc4ccc(N5CCC(N(C)C)C5)cc4oc3=O)nc2s1 (stereo not shown) [Compound 154, 7-[3-(dimethylamino)pyrrolidin-1-yl]-3-(2-methylimidazo[2,1-b][1,3]thiazol-6-yl)-2H-chromen-2-one]",3 to 30,* (maximum fold increase of ≤1.2),–,–
273 to 275,"Cc1cn2cc(-c3cc4ccc(N5C[C@H](O)[C@@H](N6CCCC6)C5)cc4oc3=O)nc2c(C)n1 [Compound 739, 3-(6,8-dimethylimidazo[1,2-a]pyrazin-2-yl)-7-[(3′S,4′S)-4′-hydroxy-1,3′-bipyrrolidin-1′-yl]-2H-chromen-2-one]",< 0.1,**** (fold increase between >1.5 and ≤1.65),< 300,–
268 to 272,"C[C@@H]1CN(c2cc(F)c3cc(-c4nc5c(F)cccc5o4)c(=O)oc3c2)C[C@H](C)N1 [Compound 367, 7-[(3R,5S)-3,5-dimethylpiperazin-1-yl]-5-fluoro-3-(4-fluoro-1,3-benzoxazol-2-yl)-2H-chromen-2-one]",0.1 to 0.3,*** (fold increase between >1.35 and ≤1.5),–,–
216 to 218,"Cc1cn2cc(-c3cc4ccc(N5CCC(NC(C)C)CC5)cc4oc3=O)nc2c(C)n1 [Compound 923, 3-(6,8-dimethylimidazo[1,2-a]pyrazin-2-yl)-7-[4-(propan-2-ylamino)piperidin-1-yl]-2H-chromen-2-one]",< 0.1,*** (fold increase between >1.35 and ≤1.5),300 to 1000,–

# Continued, compound first:
Compound,melting point [°C],"EC (1.5-fold) [1, 2] [µM]",maximum fold (Fold) increase of Smn protein (Smn protein),EC1.5x (concentration giving 1.5-fold Smn protein increase) (Smn protein) [nM],EC (1.5-fold) ([1]; 24 h) [µM]
"CC(C)NC(C)c1ccc2cc(-c3nc4ccccc4s3)c(=O)oc2c1 (stereo not shown) [Compound 144, 3-(1,3-benzothiazol-2-yl)-7-[1-(propan-2-ylamino)ethyl]-2H-chromen-2-one]",135 to 137,1 to 3,* (maximum fold increase of ≤1.2),–,–
"Cc1cn2cc(-c3cc4ccc(N5CCN6CCCCC6C5)cc4oc3=O)cc2cn1 (stereo not shown) [Compound 646, 3-(3-methylpyrrolo[1,2-a]pyrazin-7-yl)-7-(octahydro-2H-pyrido[1,2-a]pyrazin-2-yl)-2H-chromen-2-one]",218 to 221,< 0.1,**** (fold increase between >1.5 and ≤1.65),< 300,–
"Cc1cn2cc(-c3cc4ccc(C5CCN(C)CC5)cc4oc3=O)cnc2n1 [Compound 835, 3-(2-methylimidazo[1,2-a]pyrimidin-6-yl)-7-(1-methylpiperidin-4-yl)-2H-chromen-2-one]",300 to 302,0.3 to 1,***** (fold increase >1.65),300 to 1000,–
"COc1cc(OC)cc(-c2cc3ccc(N4CCCN(C)CC4)cc3oc2=O)c1 [Compound 411, 3-(3,5-dimethoxyphenyl)-7-(4-methyl-1,4-diazepan-1-yl)-2H-chromen-2-one]",151 to 153,3 to 30,* (maximum fold increase of ≤1.2),–,–
"Cc1cn2cc(-c3cc4ccc(N5CCN6CCC[C@H]6C5)cc4oc3=O)cc2cn1 [Compound 643, 7-[(8aS)-hexahydropyrrolo[1,2-a]pyrazin-2(1H)-yl]-3-(3-methylpyrrolo[1,2-a]pyrazin-7-yl)-2H-chromen-2-one]",182 to 184,< 0.1,**** (fold increase between >1.5 and ≤1.65),< 300,–
"O=c1oc2cc(CNC(CO)CO)ccc2cc1-c1nc2ccccc2s1 [Compound 99, 3-(1,3-benzothiazol-2-yl)-7-{[(1,3-dihydroxypropan-2-yl)amino]methyl}-2H-chromen-2-one]",194 to 197,3 to 30,* (maximum fold increase of ≤1.2),–,–
"CN1CCN(c2cc(F)c3cc(-c4nc5ccccc5[nH]4)c(=O)oc3c2)CC1 [Compound 370, 3-(1H-benzimidazol-2-yl)-5-fluoro-7-(4-methylpiperazin-1-yl)-2H-chromen-2-one]",281 to 284,0.3 to 1,* (maximum fold increase of ≤1.2),–,–
"O=c1oc2cc(N3CCNCC3)ccc2cc1-c1cccs1 [Compound 363, 7-(piperazin-1-yl)-3-(thiophen-2-yl)-2H-chromen-2-one]",193 to 195,–,** (fold increase between >1.2 and ≤1.35),–,1 to 3
"O=c1oc2cc(N3CCNCC3)ccc2cc1-c1cccc(F)n1 [Compound 380, 3-(6-fluoropyridin-2-yl)-7-(piperazin-1-yl)-2H-chromen-2-one]",196 to 198,–,** (fold increase between >1.2 and ≤1.35),–,0.3 to 1
"O=C(Oc1ccc2cc(-c3nc4ccccc4s3)c(=O)oc2c1)N1CCNCC1 [Compound 41, 3-(1,3-benzothiazol-2-yl)-2-oxo-2H-chromen-7-yl piperazine-1-carboxylate]",221 to 225,–,* (maximum fold increase of ≤1.2),–,1 to 3

# From USRE47689E1, “Compounds for treating spinal muscular atrophy” (PTC Therapeutics, Inc., priority 2011, dated 2019)
